Experiments:
[1] = test system: myeloperoxidase (MPO) activity; assay: Acute inflammation of mouse ears, MPO activity; assay type: in vivo, C57BL/6 mice; settings: 4 d
Experimental: […] mice of the C57BL/6 strain are used. Inflammation is induced on mouse ears with either AtRA, 9-cis RA or TPA by topical application. Inflammation is measured objectively by determination of the activity of myeloperoxidase (MPO) being directly correlated to the infiltration of polymorphonuclear white blood cells and by the determination of mRNA expression of c-jun, a protein implicated in the AP-1 transduction pathway according to known methods, see e.g. P. L. Stanley et al., Skin Pharmacol. 4, 262-271 (1991) (MPO assay), N. Basset-Sequin et al., J. Invest. Dermatol. 94, 418-422 (1990), F. J. Rauscher et al., Cell 52, 471-480 […], P. Sassone-Corn et al., Nature 326, 507-510 (1987), and M. Pfahl, Endocr. Rev. 14, 651-658, 1993, which are incorporated by reference regarding the experimental method.
In the “acute inflammation” test, mice are treated topically (epicutaneously), orally or intraperitoneally, daily for 4 days. In the “semi chronic inflammation” test, mice are treated topically according to the schedules given below. For each experiment, a group of at least 4 mice of both sexes are used in the defined condition, regarding placebo, vehicle control, compound, topical formulation, oral formulation, dosage and concentration. The topical vehicle consists of ethanol/PEG 400/water (3:1:1).
The anti-inflammatory effect of topical RXR antagonist compound 15 is tested by determination of myeloperoxidase activity in % of vehicle treated controls. For induction of inflammation 9-cis RA or TPA are applied topically to the skin, daily for 4 days. The RXR antagonist compound 15 (see Table 1) is administered topically one hour after the application of the inflammation inducing agent. The mice are sacrified 24 hours after the last treatment.

synovial fibroblasts = assay: In vitro cartilage degradation by synovial fibroblasts (sGAG release); assay type: cell-based, human; settings: for sGAG release: 14 days
Experimental: Furthermore, it is determined whether this is accompanied by a modulation in the accumulation of the mRNA encoding catabolic enzyme matrix metalloproteinase-1 (MMP-1), responsible for degradation of human cartilage and consequently joint destruction in man. Adherent synovial fluid cells taken from a patient with RA are used after 5 passages in an in vitro assay for cartilage destruction. The cells incubated in flasks coated with 0.1% (0.1 g/100 ml) human cartilage powder are fixed using Matrigel® (BD Biosciences, Becton, Dickinson & Co., Boston, Mass., USA). The release of sulphated glycosaminoglycan (sGAG) into the culture medium is monitored by a commercial colorimetric test according to a method described by S. Björnsson, see Anal. […] This is conducted in the presence or absence of IL-1β (100 pg/ml).

[2] = test system: skin inflammation induced by topical 9-cis RA; assay: Preventive and therapeutic effect on 9-cis RA-induced skin inflammation, human volunteer study; assay type: in vivo
Experimental: In this pilot clinical trial on one healthy volunteer, the substance 9-cis RA and compound 15 are administered epicutaneously. The inflammation-inducing agent 9-cis RA is used in a concentration of 0.3%. The RXR antagonist compound 15 is applied in a concentration of 1%. The compounds are solved in ethanol/propylene glycol (1:1) and administered twice daily. The site of application is the abdominal skin, with various areas of 3×3=9 cm^2. Volume per application is 0.1 ml.
The following three clinical settings at different sites are chosen: • 1. Induction of skin inflammation by 9-cis RA 9-cis RA is administered as a 0.3% solution twice daily from day 1 to day 14. The vehicle is administered from day 15 to disappearance of skin inflammation. • 2. Prevention of 9-cis RA-induced skin inflammation by RXR antagonist Compound 15 9-cis RA solution of 0.3% is administered twice daily from day 1 to day 14, each time followed subsequently by application of compound 15 as a 1% solution. • 3. Therapy of 9-cis RA-induced skin inflammation by RXR antagonist compound 15 9-cis RA solution of 0.3% is administered twice daily from day 1 to day 14. Compound 15 as a 1% solution is administered from day 15 until disappearance of skin inflammation.
The signs and symptoms of skin inflammation are recorded on a 0-4 scale, as described in example 21. The evaluation of the anti-inflammatory effect is based on the daily determination of the inflammation score (scale 0-4).
The following parameters serve as criteria for evaluation of the effect of 9-cis RA, the preventive effect of compound 15 and the therapeutic effect of compound 15. • 1. Sum of the daily inflammation scores from day 1 to day 28. Total inflammation score. • 2. Sum of the daily inflammation scores from day 15 to disappearance of skin inflammation. • 3. Time in days from day 15 to disappearance of skin inflammation.

skin of mice = assay: Topical administration to the skin of mice (irritation); assay type: in vivo; settings: concentrations up to 2.5%
[3] = absence of IL-1β, 10^−8 M, day 7
[4] = absence of IL-1β, 10^−8 M, day 14
[5] = absence of IL-1β, 10^−8 M, day 21
[6] = absence of IL-1β, 10^−8 M, day 28
[7] = absence of IL-1β, 10^−8 M, day 35
[8] = presence of 100 pg/ml IL-1β, 10^−7 M
[9] = presence of 100 pg/ml IL-1β, 10^−8 M
[10] = presence of 100 pg/ml IL-1β, 10^−8 M, day 7
[11] = presence of 100 pg/ml IL-1β, 10^−8 M, day 14
[12] = presence of 100 pg/ml IL-1β, 10^−8 M, day 21
[13] = presence of 100 pg/ml IL-1β, 10^−8 M, day 28
[14] = presence of 100 pg/ml IL-1β, 10^−8 M, day 35
[15] = presence of 100 pg/ml IL-1β, 10^−9 M
[16] = 9-cis RA 0.3% day 1 to day 14, then vehicle
[17] = Prevention: 9-cis RA 0.3% and compound 15 1%, both day 1 to day 14
[18] = Therapy: 9-cis RA 0.3% day 1 to day 14, compound 15 1% day 15 to disappearance of inflammation

Structure (SMILES)	Effect on cartilage destruction in vitro (in words) (synovial fibroblasts; absence of IL-1β)	sGAG release (synovial fibroblasts; absence of IL-1β, 10^−7 M)	sGAG release (synovial fibroblasts; absence of IL-1β, 10^−8 M)	Cumulative sGAG (synovial fibroblasts; [3])	Cumulative sGAG (synovial fibroblasts; [4])	Cumulative sGAG (synovial fibroblasts; [5])	Cumulative sGAG (synovial fibroblasts; [6])	Cumulative sGAG (synovial fibroblasts; [7])	sGAG release (synovial fibroblasts; absence of IL-1β, 10^−9 M)	sGAG release (synovial fibroblasts; [8])	sGAG release (synovial fibroblasts; [9])	Cumulative sGAG (synovial fibroblasts; [10])	Cumulative sGAG (synovial fibroblasts; [11])	Cumulative sGAG (synovial fibroblasts; [12])	Cumulative sGAG (synovial fibroblasts; [13])	Cumulative sGAG (synovial fibroblasts; [14])	sGAG release (synovial fibroblasts; [15])	Irritation or inflammation of the skin (skin of mice)	further results
CC1=C(/C=C/C(C)=C\C=C\C(C)=C\C(=O)O)C(C)(C)CCC1 [9-cis RA, 9-cis retinoic acid, reference compound]	increases cartilage destruction in vitro in a dose-dependent manner	189 µg/mL	107 µg/mL	44 µg/mL	107 µg/mL	206 µg/mL	253 µg/mL	292 µg/mL	64 µg/mL	221 µg/mL	189 µg/mL	68 µg/mL	189 µg/mL	330 µg/mL	407 µg/mL	441 µg/mL	204 µg/mL		MPO activity (% vehicle treated mice) ([1]; 9-cis RA 0.05% alone, topical): 647 ± 142 % vehicle treated mice; Sum of daily inflammation scores from day 15 to disappearance of inflammation [2, 16]: 14; Sum of daily inflammation scores, day 1 to day 28. Total inflammation score [2, 16]: 18; Time in days from day 15 to disappearance of inflammation [2, 16]: 13 days
CC1=C(/C=C/C2=C(/C=C/C(C)=C/C(=O)O)CCCCC2)C(C)(C)CCC1 [Compound 1, (2E,4E)-3-methyl-5-[2-[(E)-2-(2,6,6-trimethyl-1-cyclohexen-1-yl)ethenyl]-1-cyclohepten-1-yl]-2,4-pentadienoic acid]																		does not lead to irritation or inflammation of the skin	
CCCCOc1c(\C(C)=C/C=C/C(C)=C/C(=O)O)cc(C(C)(C)C)cc1C(C)(C)C [Compound 15, (2E,4E,6Z)-7-[2-butoxy-3,5-bis(1,1-dimethylethyl)phenyl]-3-methyl-2,4,6-octatrienoic acid]	no effect on the basal activity of synovial fibroblast	39 µg/mL	57 µg/mL	44 µg/mL	57 µg/mL	57 µg/mL	39 µg/mL	34 µg/mL	46 µg/mL	41 µg/mL	89 µg/mL	67 µg/mL	89 µg/mL	89 µg/mL	173 µg/mL	56 µg/mL	144 µg/mL	does not lead to irritation or inflammation of the skin	MPO activity (% vehicle treated mice) ([1]; 9-cis RA 0.05% + test compound 0.05% topical): 236 ± 92 % vehicle treated mice; MPO activity (% vehicle treated mice) ([1]; TPA 0.005% + test compound 0.05% topical): 163 ± 25 % vehicle treated mice; MPO activity (% vehicle treated mice) ([1]; TPA 0.005% + test compound 2.5% topical): 142 ± 18 % vehicle treated mice; Effect on cartilage destruction in vitro (in words) (synovial fibroblasts; presence of IL-1β): markedly inhibits the IL-1β dependent cartilage destruction; Sum of daily inflammation scores from day 15 to disappearance of inflammation [2, 17]: 5; Sum of daily inflammation scores, day 1 to day 28. Total inflammation score [2, 17]: 11; Time in days from day 15 to disappearance of inflammation [2, 17]: 6 days; Sum of daily inflammation scores from day 15 to disappearance of inflammation [2, 18]: 5; Sum of daily inflammation scores, day 1 to day 28. Total inflammation score [2, 18]: 9; Time in days from day 15 to disappearance of inflammation [2, 18]: 6 days
